# Experimental data taken from patent US20240207369A1, “In Vitro Drugs from Prodrugs and Use Thereof” (Brandenburgische Tehnische Universitat Cottbus-Senftenberg, priority 2021, published 2024).
# System: human thrombocytes (platelets)
# Test: ADP-induced platelet aggregation in whole blood, impedance aggregometry (Multiplate Analyzer)
# Format: cell-based
# Conditions: ADP 10 μM final; two-minute pre-incubation of the metabolite in blood of an apparently healthy subject; final metabolite concentration 0.31 mg per 1 mL; approx. 73% purity; FIG. 2
# Description: Example of embodiment of the effect of a metabolite produced via peroxygenase on human platelets (blood platelets).
# The metabolite is present as a powder (approx. 4 mg) in a dark container and is stored in a freezer at at least −80° C. until the solution is prepared. On the day of use, the drug is dissolved in 500 μl of a suitable sterile solvent (here: phosphate-buffered saline, PBS). Powder and solvent are mixed rigorously. The complete dissolution of the powder is to be visually checked. The mixture is stored on ice or at approx. 0° C. until use.
# To test the functionality of the agent, the aggregation of human thrombocytes (platelets) in whole blood is determined by impedance aggregometry (Paniccia, R.; Antonucci, E.; Maggini, N.; Romano, E.; Gori, A. M.; Marcucci, R.; Prisco, D.; Abbate, R. Assessment of Platelet Function on Whole Blood by Multiple Electrode Aggregometry in High-Risk Patients with Coronary Artery Disease Receiving Antiplatelet Therapy. American journal of clinical pathology 2009, 131, 834-42, doi:10.1309/AJCPTE3K1SGAPOIZ). For the test, approximately 5 ml of fresh whole blood is collected from a visible vein at the elbow (cubital vein) of a subject by an appropriately trained person using appropriate sterile blood collection equipment. The blood is collected into a collection vessel designed for this purpose (e.g. Sarstedt Monovette, Sarstedt, Numbrecht, Germany). […]
smiles,measurement,value
"COC(=O)[C@H](c1ccccc1Cl)N1CCC(S)C(=CC(=O)O)C1 (stereo partly drawn) [metabolite, 2-(1-((S)-1-(2-chlorophenyl)-2-methoxy-2-oxoethyl)-4-mercaptopiperidin-3-ylidene)acetic acid]",ADP-induced platelet aggregation,reduction of ADP-induced platelet aggregation
